The source of these data is patent publication EP0385679B1, “Heterocyclic cyclic ethers with inhibitory activity on 5-lipoxygenase” (ZENECA LIMITED, priority 1989, dated 1990).

Assay [1] concerns the target T1, cyclooxygenase (Homo sapiens, UniProt P23219).
T1 construct: may be measured at the same time using the specific radioimmunoassay for thromboxane B₂(TxB₂); endogenous in cells; host or cells: human whole blood (heparinised), blood cells
The assay is described as follows: Test b): heparinised human blood challenged with A23187, radioimmunoassay of TxB₂. The assay is classed as cell-based. To be noted: heparinised human blood, calcium ionophore A23187 challenge; read-out: IC₅₀ against TxB₂ in test b). The method, then:
(§1) As stated previously, the heterocyclic cyclic ethers of the formula I are inhibitors of the enzyme 5-LO. […] This test provides a measure of the intrinsic inhibitory properties against soluble 5-LO in an extracellular environment. • b) An in vitro assay system involving incubating a test compound with heparinised human blood, prior to challenge with the calcium ionophore A23187 and then indirectly measuring the inhibitory effects on 5-LO by assaying the amount of LTB₄ using the specific radioimmunoassay described by Carey and Forder (F. Carey and R.A. Forder, Brit. […] The effects of a test compound on the enzyme cyclooxygenase (which is involved in the alternative metabolic pathway for arachidonic acid and gives rise to prostaglandins, thromboxanes and related metabolites) may be measured at the same time using the specific radioimmunoassay for thromboxane B₂(TxB₂) described by Carey and Forder (see above). […] It permits the selectivity of the inhibitory effect on 5-LO or cyclooxygenase to be assessed. • c) An ex vivo assay system, which is a variation of test b) above, involving administration of a test compound (usually orally as the suspension produced when a solution of the test compound in dimethylsulphoxide is added to carboxymethylcellulose), blood collection, heparinisation, challenge with A23187 and radioimmunoassay of LTB₄ and TxB₂. […]

For assay [2], the target named is T2, 5-LO (Homo sapiens, UniProt P09917).
T2 construct: incubating a test compound with heparinised human blood, prior to challenge with the calcium ionophore A23187; endogenous in cells; host or cells: human whole blood (heparinised), blood cells
T2 sequence (P09917 1-674): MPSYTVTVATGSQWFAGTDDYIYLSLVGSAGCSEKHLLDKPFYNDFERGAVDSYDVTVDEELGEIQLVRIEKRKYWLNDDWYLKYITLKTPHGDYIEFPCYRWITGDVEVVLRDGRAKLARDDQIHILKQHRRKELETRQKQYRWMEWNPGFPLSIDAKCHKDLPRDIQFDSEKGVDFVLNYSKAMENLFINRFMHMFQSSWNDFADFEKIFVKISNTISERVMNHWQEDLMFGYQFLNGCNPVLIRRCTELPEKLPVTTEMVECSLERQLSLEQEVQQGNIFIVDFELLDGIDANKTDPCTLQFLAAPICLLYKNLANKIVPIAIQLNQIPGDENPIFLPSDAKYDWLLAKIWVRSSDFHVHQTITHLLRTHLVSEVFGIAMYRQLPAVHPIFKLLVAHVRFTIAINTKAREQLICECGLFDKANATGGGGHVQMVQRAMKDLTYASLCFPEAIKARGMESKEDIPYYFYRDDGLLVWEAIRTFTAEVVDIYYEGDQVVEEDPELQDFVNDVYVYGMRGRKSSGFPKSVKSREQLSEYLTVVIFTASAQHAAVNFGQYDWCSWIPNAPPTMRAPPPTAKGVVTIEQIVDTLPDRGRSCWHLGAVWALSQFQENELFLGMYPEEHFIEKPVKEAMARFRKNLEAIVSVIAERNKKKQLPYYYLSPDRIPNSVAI
The assay is described as follows: Test b): heparinised human blood challenged with A23187, radioimmunoassay of LTB₄. The assay is classed as cell-based. The note with it: heparinised human blood, calcium ionophore A23187 challenge; read-out: IC₅₀ against LTB₄ in test b). The method, then: as §1

T1 sequence (P23219 24-599): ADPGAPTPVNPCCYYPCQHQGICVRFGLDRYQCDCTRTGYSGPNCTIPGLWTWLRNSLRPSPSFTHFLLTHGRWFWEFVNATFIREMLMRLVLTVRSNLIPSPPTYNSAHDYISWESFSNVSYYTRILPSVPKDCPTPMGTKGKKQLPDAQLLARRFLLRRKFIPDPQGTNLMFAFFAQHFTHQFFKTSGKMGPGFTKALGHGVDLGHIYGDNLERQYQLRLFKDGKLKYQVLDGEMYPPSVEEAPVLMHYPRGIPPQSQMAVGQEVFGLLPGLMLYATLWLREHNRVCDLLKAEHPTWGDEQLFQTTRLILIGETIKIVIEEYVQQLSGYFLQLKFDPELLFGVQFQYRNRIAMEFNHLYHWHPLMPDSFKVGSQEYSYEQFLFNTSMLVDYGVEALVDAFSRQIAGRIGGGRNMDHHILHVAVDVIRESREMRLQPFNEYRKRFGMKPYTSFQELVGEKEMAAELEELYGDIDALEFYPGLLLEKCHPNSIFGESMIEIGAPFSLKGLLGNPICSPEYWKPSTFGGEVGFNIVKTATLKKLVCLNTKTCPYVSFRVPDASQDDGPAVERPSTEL

Regarding `CCC1(c2cccc(OCC#Cc3ccccn3)c2)COC(C)(C)O1` (stereo not drawn) [2,2-dimethyl-4-ethyl-4-[3-(3-(2-pyridyl)prop-2-yn-1-yloxy)phenyl]-1,3-dioxolane], the IC50 in assay [1] was greater than 40000 nM; in assay [2] it was 800 nM.

For `CCC1(c2cc(F)cc(OCc3ccc4c(ccc(=O)n4C)c3)c2)COC(C)(C)O1` (stereo not drawn) [4-ethyl-4-[5-fluoro-3-(1,2-dihydro-1-methyl-2-oxoquinolin-6-ylmethoxy)phenyl]-2,2-dimethyl-1,3-dioxolane], the IC50 in assay [2] came out at 80 nM.
